# Source: patent US20220096516A1, “OLIGONUCLEOTIDE MOLECULE AND APPLICATION THEREOF IN TUMOR THERAPY” (Ractigen Therapeutics, priority 2019, published 2022)
# d = 2'-deoxy (DNA); r = 2'-OH (RNA)
# Test system: LHPP gene
# Assay: High-throughput screening of saRNAs targeting LHPP promoter: LHPP mRNA by one-step RT-qPCR in Huh7 cells
# Assay type: cell-based, human
# Conditions: 10 nM saRNA, 72 hours, relative to control (Mock)
# Outline: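 Huh7 cells were transfected with 10 nM saRNA using RNAiMax and lysed 72 h later. LHPP mRNA was quantified by one-step RT-qPCR in triplicate wells. Expression was normalised to HPRT1 and TBP and given as fold change versus mock-transfected cells.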
substance,measurement,value
"RAG7-133: saRNA duplex; sense GCUCUUUGUCCGCUGAUCUTT (SEQ ID NO: 1), antisense AGAUCAGCGGACAAAGAGCTT (SEQ ID NO: 165) (sugars from the 5' end r19 d2, backbone not given here)",Fold of changes in relative LHPP mRNA expression level,2.54 fold
same,Fold of changes in relative LHPP mRNA expression level (log2),1.35 log2
